According to patent publication US10456441B2, “Augmenting the immune response by promoting cell death of immune cells” (The University of Vermont and State Agricultural College, priority 2014, dated 2019):
Where a SMILES comes first, the peptide text is derived from it. The star is where a group is joined. Cbz = O=C(OCc1ccccc1)*; CH2F = FC*

Tested on: γδ T cells
Assay: Cell death of γδ T cells by TUNEL assay
Assay type: cell-based, mice
Settings: 50 μM zVAD
Description: Spleens were isolated and disrupted through nylon mesh in RPMI 1640 with 25 mm Hepes (MediaTech, Herndon, Va.) containing 5% (v/v) bovine calf serum (HyClone, Logan, Utah). Erythrocyte lysis of splenocytes was performed using Geys solution. γδ T lymphocytes were enriched by negative selection using a magnetic bead system (Qiagen, Valencia, Calif.) in which splenocytes were incubated with a cocktail of rat monoclonal antibodies to mouse CD4 (clone GK 1.5), CD8 (clone Tib105), class II (clone M5/114/15/2), CD11b (clone M1/70), and B220 (CD45R) (clone RA3-6B2). Cells were washed three times and then rocked with goat anti-rat conjugated magnetic beads at a 10:1 ratio of beads to cell at 4° C. for 45 min. Magnetic depletion was used to remove bead-bound cells. Finally, enriched γδ T cells were resuspended in complete medium (RPMI 1640 (Mediatech, Inc., Herndon, Va., USA), 2.5 mg/ml glucose (Sigma, St. Louis, Mo.), […] folate (Invitrogen, Carlsbad, Calif.), 110 μg/ml pyruvate (Invitrogen), 5×10^−5 M 2-mercaptoethanol (Sigma), 292.3 μg/ml glutamine (Invitrogen), 100 units/ml penicillin-streptomycin (Invitrogen), and 5% bovine calf serum). […] Cells were counted daily and supplied with fresh media containing 50 units/ml IL-2. […]

SMILES: CC(C)[C@H](NC(=O)OCc1ccccc1)C(=O)N[C@@H](C)C(=O)N[C@@H](CC(=O)O)C(=O)CF [zVAD, N-benzyloxycarbonyl-Val-Ala-Asp-fluoromethyl ketone] (Cbz-Val-Ala-Asp-CH2F)
- cell death of γδ T cells: no increase in cell death
